Earlier results in patent US20140213605A1, “METHODS FOR TREATING EYE DISORDERS USING OPIOID RECEPTOR ANTAGONISTS” (priority 2013, published 2014).

What was measured:
[1] = in vivo

| SMILES | Bound to plasma protein [1] | Excreted unchanged [1] | Effect on incidence of re-epithelialization of the rat cornea (rat cornea; systemically administered) | Effect on re-epithelialization of the rat cornea (rat cornea; topical application in sterile water) |
| --- | --- | --- | --- | --- |
| Oc1ccc2c3c1O[C@H]1[C@H](O)CC[C@@]4(O)[C@@H](C2)N(CC2CC2)CC[C@]314 [6-β-naltrexol] | Approximately 20% | – | – | – |
| O=C1CC[C@@]2(O)[C@H]3Cc4ccc(O)c5c4[C@@]2(CCN3CC2CC2)[C@H]1O5 [Naltrexone] | – | Less than 1% | markedly influenced the incidence of re-epithelialization | not effective |
